Reference: ChEMBL document CHEMBL1128151, “Synthesis and bioactivities of heterocyclic lipids as PAF antagonists. 2” (Bioorg Med Chem Lett, 1995)

How the values were obtained:
[1] = tested on: Mus musculus; test: Survival ratio of ICR mice by the administration (0.3 mg/kg) along with endotoxin (55mg/Kg, ip) after 1 hr; type: functional
[2] = tested on: Rattus norvegicus; test: In vivo inhibitory activity against PAF-induced hypertension in SD rats by ip administration; type: functional
[3] = tested on: Cavia porcellus; test: In vivo inhibitory activity against platelet aggregation in guinea pigs; type: functional, organism-based
[4] = tested on: Mus musculus; test: Survival ratio of ICR mice by the administration (0.3 mg/kg) along with endotoxin (55mg/Kg, ip) after 42h; type: functional
[5] = tested on: Mus musculus; test: Survival ratio of ICR mice by the administration (0.3 mg/kg) along with endotoxin (55mg/Kg, ip) after 48 hr; type: functional
[6] = tested on: Cavia porcellus; test: In vivo inhibitory activity against PAF-induced bronchoconstriction in guinea pigs at a dose of 0.01 mg/kg; type: functional
[7] = tested on: Mus musculus; test: Survival ratio of ICR mice by the administration (0.3 mg/kg) along with endotoxin (55mg/Kg, ip) after 2 hr; type: functional
[8] = tested on: Cavia porcellus; test: In vivo PAF-induced bronchoconstriction in guinea pigs at a dose of 0.01 mg/kg; type: functional
[9] = tested on: Mus musculus; test: Survival ratio of ICR mice by the administration (0.3 mg/kg) along with endotoxin (55mg/Kg, ip) after 66h; type: functional
[10] = tested on: Mus musculus; test: Survival ratio of ICR mice by the administration (0.3 mg/kg) along with endotoxin (55mg/Kg, ip) after 24 hr; type: functional
[11] = tested on: Mus musculus; test: Survival ratio of ICR mice by the administration (0.3 mg/kg) along with endotoxin (55mg/Kg, ip) after 18 h; type: functional
[12] = In vitro inhibitory activity against PAF-induced aggregation of rabbit platelets
[13] = tested on: Mus musculus; test: In vivo inhibitory activity (1 mg/kg) against endotoxin-induced hemoconcentration in ICR mice with endotoxin concentration of 55 mg/kg; type: functional

| Structure (SMILES) | ED50 [2] [mg/kg] | inhibition in vivo at 0.01 mg/kg [6] [%] | Absolute [8] [%] | Change [13] [%] | Change of hemoconcentration [13] | further results |
| --- | --- | --- | --- | --- | --- | --- |
| CCCCCCCCCCCCCCCCCCNC(=O)OC[C@H]1C[C@H](COC(=O)N(Cc2cccc[n+]2CC)C(C)=O)N1C(C)=O.[Cl-] | 0.33 | 95 | 5 |  |  | Survival ratio [1]: 100; IC50 [3]: 29 nM; Survival ratio [4]: 53; Survival ratio [5]: 53; Survival ratio [7]: 100; Survival ratio [9]: 53; Survival ratio [10]: 73; Survival ratio [11]: 73 |
| C[C@@H]1C(=O)O[C@H]2C(O)[C@@]34[C@H]5C[C@@H](C(C)(C)C)[C@]36[C@@H](OC(=O)[C@@H]6O)O[C@@]4(C(=O)O5)[C@@]12O (single isomer, unassigned) [GINKOLIDE B] |  |  |  |  |  | IC50 [12]: 418 nM |
| CCCCCCCCCCCCCC(=O)OC(CCCCCCCCCCC)CC(=O)OC1C(NC(=O)CC(CCCCCCCCCCC)OC(=O)CCCCCCCCCCC)C(OC2CC(OC(=O)CC(O)CCCCCCCCCCC)C(NC(=O)CC(O)CCCCCCCCCCC)C(O)O2)OC(CO)C1OP(=O)(O)O (stereo unspecified) |  |  |  | 100 | 24 |  |
| CCCCCCCCCCCCCC(=O)OC(CCCCCCCCCCC)CC(=O)OC1C(NC(=O)CC(CCCCCCCCCCC)OC(=O)CCCCCCCCCCC)C(OC2CC(OC(=O)CC(O)CCCCCCCCCCC)C(NC(=O)CC(O)CCCCCCCCCCC)C(O)O2)OC(CO)C1OP(=O)(O)O.CCCCCCCCCCCCCCCCCCNC(=O)OC[C@@H]1C[C@@H](COC(=O)N(Cc2cccc[n+]2CC)C(C)=O)N1C(C)=O.[Cl-] (stereo unspecified) |  |  |  | 55 | 13.1 |  |
| CCCCCCCCCCCCCCCCCCNC(=O)OCC(COC(=O)N(Cc1cccc[n+]1CC)C(C)=O)OC.[Cl-] (stereo unspecified) [CV-6209] | 0.35 | 87 | 12 | 48 |  |  |
| CCCCCCCCCCCCCCCCCCNC(=O)OC[C@H]1C[C@H](COC(=O)N(Cc2cccc[n+]2CC)C(C)=O)C1.[I-] | 0.58 | 87 | 12 |  |  | Survival ratio [1]: 100; IC50 [3]: 56 nM; Survival ratio [4]: 40; Survival ratio [5]: 33; Survival ratio [7]: 100; Survival ratio [9]: 27; Survival ratio [10]: 73; Survival ratio [11]: 80 |
| CCCCCCCCCCCCCC(=O)OC(CCCCCCCCCCC)CC(=O)OC1C(NC(=O)CC(CCCCCCCCCCC)OC(=O)CCCCCCCCCCC)C(OC2CC(OC(=O)CC(O)CCCCCCCCCCC)C(NC(=O)CC(O)CCCCCCCCCCC)C(O)O2)OC(CO)C1OP(=O)(O)O.CCCCCCCCCCCCCCCCCCNC(=O)OC[C@H]1C[C@H](COC(=O)N(Cc2cccc[n+]2CC)C(C)=O)O1.[I-] (stereo unspecified) |  |  |  | 53 | 12.7 |  |
| CCCCCCCCCCCCCC(=O)OC(CCCCCCCCCCC)CC(=O)OC1C(NC(=O)CC(CCCCCCCCCCC)OC(=O)CCCCCCCCCCC)C(OC2CC(OC(=O)CC(O)CCCCCCCCCCC)C(NC(=O)CC(O)CCCCCCCCCCC)C(O)O2)OC(CO)C1OP(=O)(O)O.CCCCCCCCCCCCCCCCNC(=O)OC[C@@H]1C[C@@H](COC(=O)N(Cc2cccc[n+]2CC)C(C)=O)S1.[Cl-] (stereo unspecified) |  |  |  | 53 | 12.7 |  |
| CCCCCCCCCCCCCC(=O)OC(CCCCCCCCCCC)CC(=O)O[C@@H]1[C@@H](NC(=O)CC(CCCCCCCCCCC)OC(=O)CCCCCCCCCCC)[C@H](O[C@@H]2C[C@H](OC(=O)CC(O)CCCCCCCCCCC)[C@@H](NC(=O)CC(O)CCCCCCCCCCC)[C@@H](O)O2)O[C@H](CO)[C@H]1OP(=O)(O)O.CCCCCCCCCCCCCCCCCCNC(=O)OC[C@H]1C[C@H](COC(=O)N(Cc2cccc[n+]2CC)C(C)=O)C1.[I-] (stereo partly specified) |  |  |  | 25 | 5.9 |  |
| CCCCCCCCCCCCCCCCCCNC(=O)OC[C@H]1C[C@H](COC(=O)N(Cc2cccc[n+]2CC)C(C)=O)O1.[I-] | 0.28 | 92 | 7 |  |  |  |
| CCCCCCCCCCCCCCCCNC(=O)OC[C@@H]1C[C@@H](COC(=O)N(Cc2cccc[n+]2CC)C(C)=O)S1.[Cl-] | 0.16 | 92 | 7 |  |  | Survival ratio [1]: 100; IC50 [3]: 21 nM; Survival ratio [4]: 60; Survival ratio [5]: 60; Survival ratio [7]: 100; Survival ratio [9]: 60; Survival ratio [10]: 73; Survival ratio [11]: 80 |
